The structures appear in SMILES notation.

The IC50 is the concentration at which inhibition is half-maximal.

For one experiment, the target named is T1, CECR2 (Homo sapiens, UniProt Q9BXF3).
T1 construct: 424-538 was cloned, expressed, and purified to homogeneity; Flag; made in house
T1 sequence (Q9BXF3 424-538 limits assumed): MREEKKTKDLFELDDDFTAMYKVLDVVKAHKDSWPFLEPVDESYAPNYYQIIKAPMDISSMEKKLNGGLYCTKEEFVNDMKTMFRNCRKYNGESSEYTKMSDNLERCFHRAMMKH
Briefly: CECR2 TR-FRET Binding Assay. Particulars: IC50 (uM). From the text:
IC50 Measurements for Inhibitors Using CECR2 TR-FRET Binding Assay
(In TR-FRET formats the signal depends on donor and acceptor labels being close together.)
As to `C=CCn1cc(C(=O)N(C)C2CCN(c3cc(OC)ncn3)CC2)c2cc[nH]c2c1=O` [Example 162, 6-allyl-N-[1-(6-methoxypyrimidin-4-yl)-4-piperidyl]-N-methyl-7-oxo-1H-pyrrolo[2,3-c]pyridine-4-carboxamide], the IC50 was 0.12 µM.

Compound `C=CCn1cc(C(=O)N(C)C2CCN(c3cc(C(F)(F)F)ncn3)CC2)c2cc[nH]c2c1=O` [Example 164, 6-allyl-N-methyl-7-oxo-N-[1-[6-(trifluoromethyl)pyrimidin-4-yl]-4-piperidyl]-1H-pyrrolo[2,3-c]pyridine-4-carboxamide] yielded an IC50 of 0.21 µM.

In the case of `C=CCn1cc(C(=O)N(C)C2CCN(c3cc(C)nc(C)n3)CC2)c2cc[nH]c2c1=O` [Example 165, 6-allyl-N-[1-(2,6-dimethylpyrimidin-4-yl)-4-piperidyl]-N-methyl-7-oxo-1H-pyrrolo[2,3-c]pyridine-4-carboxamide], the IC50 came out at 0.087 µM.

The same experiment, now with this note: read-out: IC50.
In the case of `CN(C(=O)c1cn(C)c(=O)c2[nH]ccc12)C1CCN(c2ncc(C#N)cn2)CC1` [Example 141, N-[1-(5-cyanopyrimidin-2-yl)-4-piperidyl]-N,6-dimethyl-7-oxo-1H-pyrrolo[2,3-c]pyridine-4-carboxamide], the IC50 is 0.39 µM.

Take `CN(C(=O)c1cn(C)c(=O)c2[nH]ccc12)C1CCN(c2nccc(C(F)(F)F)n2)CC1` [Example 142, N,6-dimethyl-7-oxo-N-[1-[4-(trifluoromethyl)pyrimidin-2-yl]-4-piperidyl]-1H-pyrrolo[2,3-c]pyridine-4-carboxamide]: the IC50 turned out to be 0.29 µM.

Take `CN(C(=O)c1cn(C)c(=O)c2[nH]ccc12)C1CCN(c2cnccn2)CC1` [Example 143, N,6-dimethyl-7-oxo-N-(1-pyrazin-2-yl-4-piperidyl)-1H-pyrrolo[2,3-c]pyridine-4-carboxamide]: the IC50 turned out to be 0.4 µM.

For the compound `Cc1ccnc(N2CCC(N(C)C(=O)c3cn(C)c(=O)c4[nH]ccc34)CC2)n1` [Example 144, N,6-dimethyl-N-[1-(4-methylpyrimidin-2-yl)-4-piperidyl]-7-oxo-1H-pyrrolo[2,3-c]pyridine-4-carboxamide], the IC50 was determined as 0.43 µM.

Regarding `CN(C(=O)c1cn(C)c(=O)c2[nH]ccc12)C1CCN(c2cccnn2)CC1` [Example 145, N,6-dimethyl-7-oxo-N-(1-pyridazin-3-yl-4-piperidyl)-1H-pyrrolo[2,3-c]pyridine-4-carboxamide], the IC50 is 0.41 µM.

Turning to `CN(C(=O)c1cn(C)c(=O)c2[nH]ccc12)C1CCN(c2ncc(F)cn2)CC1` [Example 147, N-[1-(5-fluoropyrimidin-2-yl)-4-piperidyl]-N,6-dimethyl-7-oxo-1H-pyrrolo[2,3-c]pyridine-4-carboxamide], the IC50 came out at 0.51 µM.

On to `CN(CC1CCN(c2ccncn2)CC1)C(=O)c1cn(C)c(=O)c2[nH]ccc12` [Example 158, N,6-dimethyl-7-oxo-N-[(1-pyrimidin-4-yl-4-piperidyl)methyl]-1H-pyrrolo[2,3-c]pyridine-4-carboxamide], for which the IC50 is 0.79 µM.

Regarding `C=CCn1cc(C(=O)N(C)C2CCN(c3ccnc(C#N)n3)CC2)c2cc[nH]c2c1=O` [Example 160, 6-allyl-N-[1-(2-cyanopyrimidin-4-yl)-4-piperidyl]-N-methyl-7-oxo-1H-pyrrolo[2,3-c]pyridine-4-carboxamide], the IC50 was found to be 0.18 µM.

In the case of `C=CCn1cc(C(=O)N(C)C2CCN(c3ncnc4c3CCC4)CC2)c2cc[nH]c2c1=O` [Example 163, 6-allyl-N-[1-(6,7-dihydro-5H-cyclopenta[d]pyrimidin-4-yl)-4-piperidyl]-N-methyl-7-oxo-1H-pyrrolo[2,3-c]pyridine-4-carboxamide], the IC50 stood at 0.091 µM.

As for `C=CCn1cc(C(=O)N(C)C2CCN(c3cc(C(C)C)ncn3)CC2)c2cc[nH]c2c1=O` [Example 167, 6-allyl-N-[1-(6-isopropylpyrimidin-4-yl)-4-piperidyl]-N-methyl-7-oxo-1H-pyrrolo[2,3-c]pyridine-4-carboxamide], the IC50 worked out at 0.12 µM.
